From patent US20220306640A1, “HYDANTOIN DERIVATIVE” (ONO PHARMACEUTICAL CO., LTD., priority 2019, published 2022)

Columns and labels:
Flt-3 = target: T1, Flt-3 (Homo sapiens, UniProt P36888); assay: Evaluation of kinase selectivity: % inhibition rate of Flt-3 at 1 μmol/L; format: biochemical; details: compound at 1 μmol/L
T1 sequence (P36888 27-993): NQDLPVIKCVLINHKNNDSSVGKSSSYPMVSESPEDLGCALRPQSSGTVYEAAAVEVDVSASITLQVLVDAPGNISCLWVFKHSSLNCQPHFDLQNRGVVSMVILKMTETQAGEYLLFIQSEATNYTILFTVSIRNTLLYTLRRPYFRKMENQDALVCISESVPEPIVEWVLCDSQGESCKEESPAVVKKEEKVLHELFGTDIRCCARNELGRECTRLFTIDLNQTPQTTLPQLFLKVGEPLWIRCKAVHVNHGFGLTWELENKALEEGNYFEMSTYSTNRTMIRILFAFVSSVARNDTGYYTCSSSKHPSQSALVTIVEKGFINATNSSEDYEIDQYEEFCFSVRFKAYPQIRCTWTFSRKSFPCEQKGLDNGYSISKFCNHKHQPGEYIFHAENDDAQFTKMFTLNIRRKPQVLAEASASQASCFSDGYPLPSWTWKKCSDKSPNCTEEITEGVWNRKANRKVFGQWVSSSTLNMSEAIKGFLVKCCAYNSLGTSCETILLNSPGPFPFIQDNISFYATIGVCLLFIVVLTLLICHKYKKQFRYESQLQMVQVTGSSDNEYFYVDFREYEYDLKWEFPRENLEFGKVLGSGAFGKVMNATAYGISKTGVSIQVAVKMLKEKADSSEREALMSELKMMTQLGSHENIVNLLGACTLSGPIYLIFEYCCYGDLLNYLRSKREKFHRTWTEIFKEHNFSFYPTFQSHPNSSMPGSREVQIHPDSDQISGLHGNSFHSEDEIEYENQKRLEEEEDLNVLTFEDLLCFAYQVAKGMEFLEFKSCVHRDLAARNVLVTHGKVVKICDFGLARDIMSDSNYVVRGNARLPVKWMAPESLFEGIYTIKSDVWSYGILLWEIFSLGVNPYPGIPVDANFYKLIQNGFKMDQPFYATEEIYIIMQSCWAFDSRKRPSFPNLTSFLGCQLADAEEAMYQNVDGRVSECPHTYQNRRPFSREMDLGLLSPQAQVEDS
Description: (§1) Biological Example 3: Evaluation of Kinase Selectivity
(§2) % inhibition rate with respect to various kinases (for example KDR etc.) of 1 μmol/L the test compound is measured.
(§3) A general assay condition (substrates, cofactor, ATP concentrations and reaction time etc.) suitable for respective kinase enzyme inhibition activity test is used.
(§4) 1 Prepare the test compounds into 1 mmol/L DMSO solution. 2 Transfer 20 nL of stock to 384 assay plate. Use DMSO as High and Low controls.
(§5) 1 Prepare the 1.3× Enzyme solution containing enzyme, substrate and cofactors. 2 Add 15 μL of 1.3× Enzyme solutions to each well and incubate the plate at room temperature for 30 min. 3 Initiate the reaction by adding 5 μL of 4×ATP solution. The final volume of each well should be 20 μL. 4 Incubate the plate at room temperature for reaction and add 75 μL of stopping buffer (containing 0.5 mol/L EDTA) to terminate the reaction.
(§6) Analyze the sample of each well using EZ reader (PerkinElmer).
(§7) Calculate the % Inhibition using read conversion ratio (CR) following the equation as below.
(§8) Use well treated with DMSO as High Control Use well without enzyme as Low Control

ROCK = ROCK (Homo sapiens, UniProt O75116); assay: Evaluation of kinase selectivity: % inhibition rate of ROCK at 1 μmol/L; format: biochemical; details: compound at 1 μmol/L; read-out: % inhibition rate of ROCK2
Sequence of ROCK (O75116 whole entry): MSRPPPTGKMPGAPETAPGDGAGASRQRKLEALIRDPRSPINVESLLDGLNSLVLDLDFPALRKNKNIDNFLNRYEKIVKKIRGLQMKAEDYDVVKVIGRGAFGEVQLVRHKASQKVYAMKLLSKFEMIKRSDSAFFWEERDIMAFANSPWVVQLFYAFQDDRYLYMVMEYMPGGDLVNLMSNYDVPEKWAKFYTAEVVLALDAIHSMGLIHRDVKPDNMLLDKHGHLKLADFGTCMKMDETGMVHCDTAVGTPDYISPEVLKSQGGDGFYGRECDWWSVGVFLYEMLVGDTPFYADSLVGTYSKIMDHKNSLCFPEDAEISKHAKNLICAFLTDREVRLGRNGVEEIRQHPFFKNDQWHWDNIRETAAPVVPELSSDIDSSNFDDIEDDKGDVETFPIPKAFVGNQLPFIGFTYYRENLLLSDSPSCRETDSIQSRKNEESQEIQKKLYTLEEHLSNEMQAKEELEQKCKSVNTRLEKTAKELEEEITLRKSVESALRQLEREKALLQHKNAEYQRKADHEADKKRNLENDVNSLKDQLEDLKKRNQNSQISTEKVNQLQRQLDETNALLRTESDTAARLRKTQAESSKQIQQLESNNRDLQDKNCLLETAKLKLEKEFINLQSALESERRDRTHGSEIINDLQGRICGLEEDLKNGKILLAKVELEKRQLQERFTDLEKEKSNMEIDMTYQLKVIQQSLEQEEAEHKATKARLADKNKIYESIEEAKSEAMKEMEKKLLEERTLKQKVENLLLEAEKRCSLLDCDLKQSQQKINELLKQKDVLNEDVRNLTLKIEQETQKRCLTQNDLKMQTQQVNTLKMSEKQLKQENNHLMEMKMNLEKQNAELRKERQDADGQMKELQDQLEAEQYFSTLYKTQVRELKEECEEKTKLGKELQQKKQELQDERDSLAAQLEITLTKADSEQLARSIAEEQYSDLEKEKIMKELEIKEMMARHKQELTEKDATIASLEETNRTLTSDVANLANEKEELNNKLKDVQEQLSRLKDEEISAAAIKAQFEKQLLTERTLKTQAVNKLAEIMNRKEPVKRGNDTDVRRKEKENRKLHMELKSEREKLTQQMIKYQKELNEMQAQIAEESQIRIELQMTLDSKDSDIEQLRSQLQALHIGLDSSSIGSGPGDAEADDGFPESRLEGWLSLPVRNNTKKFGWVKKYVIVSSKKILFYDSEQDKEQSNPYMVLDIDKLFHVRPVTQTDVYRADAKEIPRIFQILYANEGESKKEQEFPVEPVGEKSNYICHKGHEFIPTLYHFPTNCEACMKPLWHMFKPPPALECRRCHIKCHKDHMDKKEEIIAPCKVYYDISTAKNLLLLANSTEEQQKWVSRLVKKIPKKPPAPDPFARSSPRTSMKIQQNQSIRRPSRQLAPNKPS
Description: as §1, §2, §3, §4, §5, §6, §7, §8

Cc1cc(Oc2ccnc(N)n2)ccc1N1C(=O)CN(c2ccc(F)c(OC(F)(F)F)c2)C1=O [Example 3(110), 3-{4-[(2-amino-4-pyrimidinyl)oxy]-2-methylphenyl}-1-[4-fluoro-3-(trifluoromethoxy)phenyl]-2,4-imidazolidinedione]
inhibition at 1 µM (Flt-3): 6%
inhibition at 1 µM (ROCK): -2%
